In US10821115B2, “Compounds that inhibit Mcl-1 protein” (priority 2017, dated 2020) one finds IC50 data, which are given here for 14 molecules.

As usually defined, the IC50 is the concentration that inhibits the measured activity by half.

Read-outs that look alike come from different tables or passages of the source.

Test [1] concerns the target recombinant human Mcl-1 (residues 171-327) / Bim interaction (Homo sapiens (Human), UniProt Q07820). In words: biochemical. The test is classed as binding. Particulars: read-out: Mcl-1 HTRF IC50. A general note: Time-resolved FRET reads energy transfer from a long-lived donor to a nearby acceptor.
Test [2] deals with human multiple myeloma cell line, OPM-2. In words: Cell viability assay (OPM-2 10 FBS), CellTiter-Glo. Type of test: cell-based. A digest of the protocol: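 3000 cells/well, RPMI 1640 + 10% FBS; serial compound dilutions, 16 h, 37 °C/5% CO2.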
(Cellular ATP, detected with luciferase, serves as a proxy for viable cell number.)

Where [3] appears, read: TR-FRET, Mcl-1(171-327) / biotin-Bim (51-76).
[4] abbreviates: read-out: OPM-2 10% FBS IC50 IP, OPM-2 cells, 10% FBS, 16 h, CellTiter-Glo.
The mark [5] stands for this setting: 0.1 nM Mcl-1(171-327), 0.05 nM biotin-Bim (51-76).
Setting [6] is: Homo sapiens, OPM-2, 16 h, read-out: OPM-2 10% FBS IC50 IP, OPM-2 cells, 10% FBS, 16 h, CellTiter-Glo.
[7] abbreviates: read-out: OPM-2 10% FBS IC50 IP, OPM-2 cells, 10% FBS, 16 h incubation.

recombinant human Mcl-1 (residues 171-327) / Bim interaction, sequence (Q07820 171-327): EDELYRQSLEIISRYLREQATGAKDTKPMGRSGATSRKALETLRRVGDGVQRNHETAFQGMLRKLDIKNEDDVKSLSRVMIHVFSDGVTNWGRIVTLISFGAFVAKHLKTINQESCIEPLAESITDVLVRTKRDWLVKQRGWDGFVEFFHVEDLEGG

For the molecule `C[C@@H]1[C@@H](C)CCC[C@@](O)(Cc2ccccn2)[C@@H]2CC[C@H]2CN2C[C@@]3(CCCc4cc(Cl)ccc43)COc3ccc(cc32)C(=O)NS1(=O)=O` [Example 100104, (1S,3′R,6′R,7′R,11′S,12′R)-6-chloro-7′-hydroxy-11′,12′-dimethyl-7′-(2-pyridinylmethyl)-3,4-dihydro-2H,15′H-spiro[naphthalene-1,22′-[20]oxa[13]thia[1,14]diazatetracyclo [14.7.2.0~3,6~.0~19,24~]pentacosa[16,18,24]trien]-15′-one 13′,13′-dioxide], the IC50 was determined as 0.599 nM in test [1] (setting [3]) and 250 nM in test [2] (setting [4]).

In the case of `C[C@@H]1[C@@H](C)CCC[C@@](O)(C2CCN(C)CC2)[C@@H]2CC[C@H]2CN2C[C@@]3(CCCc4cc(Cl)ccc43)COc3ccc(cc32)C(=O)NS1(=O)=O` [Example 100386, (1S,3′R,6′R,7′R,11′S,12′R)-6-chloro-7′-hydroxy-11′,12′-dimethyl-7′-(1-methyl-4-piperidinyl)-3,4-dihydro-2H,15′H-spiro[naphthalene-1,22′-[20]oxa[13]thia[1,14]diazatetracyclo [14.7.2.0~3,6~.0~19,24~]pentacosa[16,18,24]trien]-15′-one 13′,13′-dioxide], the values for the half-maximal inhibitory concentration (IC50) in test [1] (setting [3]) and in test [2] (setting [4]) were 4.02 nM and 7270 nM, respectively.

In the case of `CC(C)CO[C@]1(CN2CCN3CCCC[C@@H]3C2)/C=C/C[C@H](C)[C@@H](C)S(=O)(=O)NC(=O)c2ccc3c(c2)N(C[C@@H]2CC[C@H]21)C[C@@]1(CCCc2cc(Cl)ccc21)CO3` [Example 354, (1S,3′R,6′R,7′R,8′E,11′S,12′R)-6-chloro-11′,12′-dimethyl-7′-(2-methylpropoxy)-7′-((9aR)-octahydro-2H-pyrido[1,2-a]pyrazin-2-ylmethyl)-3,4-dihydro-2H,15′H-spiro[naphthalene-1,22′-[20]oxa[13]thia[1,14]diazatetracyclo [14.7.2.0~3,6~.0~19,24~]pentacosa[8,16,18,24]tetraen]-15′-one 13′,13′-dioxide], the IC50 in test [1] (setting [5]) worked out at 0.214 nM; in test [2] (Homo sapiens, OPM-2, 16 h, read-out: OPM-2 10% FBS IC50 IP, OPM-2 cells, 10% FBS, 16 h incubation), 450 nM.

Turning to `C[C@@H]1[C@@H](C)CCC[C@@]2(COC(=O)O2)[C@@H]2CC[C@H]2CN2C[C@@]3(CCCc4cc(Cl)ccc43)COc3ccc(cc32)C(=O)NS1(=O)=O` [Example 100054, (3′R,4S,6′R,11′S,12′R,22′S)-6″-chloro-11′,12′-dimethyl-3″,4″-dihydro-2″H,15′H-dispiro[1,3-dioxolane-4,7′-[20]oxa[13]thia[1,14]diazatetracyclo [14.7.2.0~3,6~.0~19,24~]pentacosa[16,18,24]triene-22′,1″-naphthalene]-2,15′-dione 13′,13′-dioxide], the IC50 in test [1] (setting [3]) was 4.11 nM; in test [2] (setting [6]), 9060 nM.

In the case of `COC[C@]1(O)CCC[C@H](C)[C@@H](C)S(=O)(=O)NC(=O)c2ccc3c(c2)N(C[C@@H]2CC[C@H]21)C[C@@]1(CCCc2cc(Cl)ccc21)CO3` (stereo in doubt) [Example 100149, (1S,3′R,6′R,7′S,11′S,12′R)-6-chloro-7′-hydroxy-7′-(methoxymethyl)-11′,12′-dimethyl-3,4-dihydro-2H,15′H-spiro[naphthalene-1,22′-[20]oxa[13]thia[1,14]diazatetracyclo [14.7.2.0~3,6~.0~19,24~]pentacosa[16,18,24]rien]-15′-one 13′,13′-dioxide], the IC50 in test [1] (setting [3]) was determined as 0.214 nM; in test [2] (setting [6]), 186 nM.

In the case of `CCCO[C@]1(CN2CCN3CCCC[C@@H]3C2)/C=C/C[C@H](C)[C@@H](C)S(=O)(=O)NC(=O)c2ccc3c(c2)N(C[C@@H]2CC[C@H]21)C[C@@]1(CCCc2cc(Cl)ccc21)CO3` [Example 353, (1S,3′R,6′R,7′R,8′E,11′S,12′R)-6-chloro-11′,12′-dimethyl-7′-((9aR)-octahydro-2H-pyrido[1,2-a]pyrazin-2-ylmethyl)-7′-propoxy-3,4-dihydro-2H,15′H-spiro[naphthalene-1,22′-[20]oxa[13]thia[1,14]diazatetracyclo [14.7.2.0~3,6~.0~19,24~]pentacosa[8,16,18,24]tetraen]-15′-one 13′,13′-dioxide], the IC50 in test [1] (setting [5]) amounted to 0.135 nM; in test [2] (setting [7]) it was 186 nM.

Turning to `CO[C@@]1(Cc2cc(C)ccn2)/C=C/C[C@H](C)[C@@H](C)S(=O)(=O)NC(=O)c2ccc3c(c2)N(C[C@@H]2CC[C@H]21)C[C@@]1(CCCc2cc(Cl)ccc21)CO3` [Example 100560, (1S,3′R,6′R,7′S,8′E,11′S,12′R)-6-chloro-7′-methoxy-11′,12′-dimethyl-7′-((4-methyl-2-pyridinyl)methyl)-3,4-dihydro-2H,15′H-spiro[naphthalene-1,22′-[20]oxa[13]thia[1,14]diazatetracyclo [14.7.2.0~3,6~.0~19,24~]pentacosa[8,16,18,24]tetraen]-15′-one 13′,13′-dioxide], the 50% inhibitory concentration (IC50) in test [1] (setting [3]) amounted to 0.041 nM; in test [2] (setting [6]), 2020 nM.

Consider `COCCN(C)C(=O)C[C@]1(O)CCC[C@H](C)[C@@H](C)S(=O)(=O)NC(=O)c2ccc3c(c2)N(C[C@@H]2CC[C@H]21)C[C@@]1(CCCc2cc(Cl)ccc21)CO3` [Example 100141, 2-((1S,3′R,6′R,7′R,11′S,12′R)-6-chloro-7′-hydroxy-11′,12′-dimethyl-13′,13′-dioxido-15′-oxo-3,4-dihydro-2H-spiro[naphthalene-1,22′-[20]oxa[13]thia[1,14]diazatetracyclo [14.7.2.0~3,6~.0~19,24~]pentacosa[16,18,24]trien]-7′-yl)-N-(2-methoxyethyl)-N-methylacetamide], for which the results for the IC50 in test [1] (setting [3]) and in test [2] (setting [4]) were 1.06 nM and 1370 nM, respectively.

Consider `CO[C@@]1(CCN(C)C)/C=C/C[C@H](C)[C@@H](C)S(=O)(=O)NC(=O)c2ccc3c(c2)N(C[C@@H]2CC[C@H]21)C[C@@]1(CCCc2cc(Cl)ccc21)CO3` [Example 100393, (1S,3′R,6′R,7′S,8′E,11′S,12′R)-6-chloro-7′-(2-(dimethylamino)ethyl)-7′-methoxy-11′,12′-dimethyl-3,4-dihydro-2H,15′H-spiro[naphthalene-1,22′-[20]oxa[13]thia[1,14]diazatetracyclo [14.7.2.0~3,6~.0~19,24~]pentacosa[8,16,18,24]tetraen]-15′-one 13′,13′-dioxide], for which the IC50 is 0.164 nM in test [1] (setting [3]) and 211 nM in test [2] (setting [6]).

On to `C[C@@H]1[C@@H](C)CCC[C@@](O)(COCCN(C)C)[C@@H]2CC[C@H]2CN2C[C@@]3(CCCc4cc(Cl)ccc43)COc3ccc(cc32)C(=O)NS1(=O)=O` [Example 100194, (1S,3′R,6′R,7′S,11S,12R)-6-chloro-7′-((2-(dimethylamino)ethoxy)methyl)-7′-hydroxy-11′,12′-dimethyl-3,4-dihydro-2H,15′H-spiro[naphthalene-1,22′-[20]oxa[13]thia[1,14]diazatetracyclo [14.7.2.0~3,6~.0~19,24~]pentacosa[16,18,24]trien]-15′-one 13′,13′-dioxide], for which the IC50 in test [1] (setting [3]) turned out to be 0.613 nM; in test [2] (setting [6]) it was 619 nM.

Take `C[C@@H]1[C@@H](C)C/C=C/[C@@](O)([C@@H](O)C(=O)N(C)C)[C@@H]2CC[C@H]2CN2C[C@@]3(CCCc4cc(Cl)ccc43)COc3ccc(cc32)C(=O)NS1(=O)=O` [Example 100289, (2R)-2-((1S,3′R,6′R,7′S,8′E,11′S,12′R)-6-chloro-7′-hydroxy-11′,12′-dimethyl-13′,13′-dioxido-15′-oxo-3,4-dihydro-2H-spiro[naphthalene-1,22′-[20]oxa[13]thia[1,14]diazatetracyclo [14.7.2.0~3,6~.0~19,24~]pentacosa[8,16,18,24]tetraen]-7′-yl)-2-hydroxy-N,N-dimethylethanamide]: the values for the IC50 in test [1] (setting [3]) and in test [2] (setting [6]) were 0.878 nM and 3960 nM, respectively.

Regarding `COCC[C@@H]1[C@@H](C)C/C=C/[C@@](O)(C2SCCCS2)[C@@H]2CC[C@H]2CN2C[C@@]3(CCCc4cc(Cl)ccc43)COc3ccc(cc32)C(=O)NS1(=O)=O` [Example 100513, (1S,3′R,6′R,7′S,8′E,11′S,12′R)-6-chloro-7′-(1,3-dithian-2-yl)-7′-hydroxy-12′-(2-methoxyethyl)-11′-methyl-3,4-dihydro-2H,15′H-spiro[naphthalene-1,22′-[20]oxa[13]thia[1,14]diazatetracyclo [14.7.2.0~3,6~.0~19,24~]pentacosa[8,16,18,24]tetraen]-15′-one 13′,13′-dioxide], the values for the IC50 in test [1] (setting [3]) and in test [2] (setting [6]) were 0.071 nM and 288 nM, respectively.

Consider `C[C@@H]1[C@@H](C)C/C=C/[C@](O)(c2cccnc2F)[C@@H]2CC[C@H]2CN2C[C@@]3(CCCc4cc(Cl)ccc43)COc3ccc(cc32)C(=O)NS1(=O)=O` (single isomer, unassigned) [Example 100313], for which the IC50 in test [1] (setting [3]) stood at 0.129 nM; in test [2] (setting [4]), 143 nM.

As to “(1 S,3′R,6′R,7′R,8′E,11′S,12′R)-6-chloro-7′-methoxy-11′-methyl-12′-(2-(((2-methyl-2-propanyl)(diphenyl)silyl)oxy)ethyl)-7′-((9aR)-octahydro-2H-pyrido[1,2-a]pyrazin-2-ylmethyl)-3,4-dihydro-2H, 15′H-spiro[naphthalene-1,22′-[20]oxa[13]thia[1,14]diazatetracyclo[14.7.2.0-3,6˜.0˜19,24˜]pentacosa[8,16,18,24]tetraen]-15′-one 13′,13′-dioxide [Example 359]”, the results for the IC50 in test [1] (setting [5]) and in test [2] (setting [7]) were 2.08 nM and > 33300 nM, respectively.
